The structures appear in SMILES notation. Entries after “also recorded” stand apart in the source; their conditions may differ.

What is called AUC(0-t) is the area under the concentration-time curve up to a stated or last time point. Lower therefore signals low exposure. The term AUC(0-inf) denotes the area under the concentration-time curve extrapolated to infinity. As usually defined, the Cmax is the peak of the concentration-time curve. The term Tmax denotes the time at which the peak concentration occurs. One may read the half-life as the time in which the quantity being followed falls by half.

The conditions of data set [1]: pH values ranging from 1.2 to 7.0; cited from earlier work.
Data set [2] is described as follows: Plasma pharmacokinetics of nabilone and gabapentin after oral PP-01 once daily for four doses (LC-MS/MS), Example 1 clinical study. As to conditions: for AUC(0-t) / AUC(0-inf) / Cmax / Tmax / half-life: human, plasma, oral; for AUC(0-inf): AUC0-∞; for Pharmacokinetics compared with historical controls: nabilone and gabapentin given together as PP-01. The source says:
A total of 14 eligible healthy volunteers with moderate to severe CUD and no contraindications to nabilone or gabapentin were randomized to receive PP-01 (nabilone and gabapentin; Test) or Placebo, in a 1:1 ratio, from a randomization table at the start of Period 1 (Day −1). If participants received PP-01 in Period 1, they received Placebo in Period 2; similarly, if participants received Placebo in Period 1, they received PP-01 in Period 2. Participants received oral doses of PP-01 or Placebo approximately 2 hours before a standardized meal on the morning on the second day of each inpatient admission (Day 1, Periods 1 and 2) and continued to receive once-daily dosing in the morning for a total of four doses per period.
On Day 1, the 0-hour PK blood draw was obtained within 30 minutes prior to the first dose of study drug which was administered by the Investigator (or a staff member as delegated by the Investigator) at approximately 120 minutes prior to the morning standardized breakfast. Venous blood samples of approximately 10 mL each were obtained at the following times following the Day 1 dose to assess nabilone and gabapentin concentrations: 30 and 60 minutes, and 2, 3, and 4 hours (within ±5 minutes of each time point), and 6, 8, 12, and 24 hours (within ±10 minutes of each time point) after study drug administration. The CWS was completed by participants prior to dosing (Baseline) and at 4- and 10-hours post-dose and the sleep questionnaire was completed in the morning prior to dosing. Blood samples to assess serum cortisol were obtained in the evening. Routine safety assessments were performed as scheduled.
On Day 4, the 0-hour PK blood draw was obtained within 30 minutes prior to the dosing of study drug, which was administered by the Investigator (or a staff member as delegated by the Investigator) at approximately 120 minutes prior to the morning standardized breakfast. Venous blood samples of approximately 10 mL each were obtained at the following times following the Day 4 dose to assess nabilone and gabapentin concentrations: 30 and 60 minutes, and 2, 3, and 4 hours (within ±5 minutes of each time point), and 6, 8, 12, and 24 hours (within ±10 minutes of each time point) after study drug administration. The CWS was completed by participants prior to dosing and at 4- and 10-hours post-dose and the sleep questionnaire was completed in the morning prior to dosing; the PGI-S and CGI were completed approximately 4 hours after dosing. Blood samples to assess serum cortisol were obtained in the evening. Routine safety assessments were performed as scheduled.
The following PK assessments were assessed in Periods 1 and 2 on Day 1, Day 2 (trough), Day 4, Day 5 (trough), and Day 8 for nabilone and gabapentin. Baseline concentrations were defined as the 0-minute time point (within 30 minutes of dosing) on Day 1 (Periods 1 and 2). • Area under the plasma concentration-time curve from 0 to the last measurable concentration (AUC0-t) • Area under the plasma concentration-time curve extrapolated to infinity (AUC0-∞) • Peak (maximum) plasma concentration of the drug (Cmax) • Time to peak (maximum) plasma concentration (tmax) • Elimination half-life (t1/2)
Venous blood samples of 10 ml each were collected with K2EDTA anticoagulant for Baseline levels of Δ-9-THC, 11-OHTHC and THC-COOH on Day −1 (Periods 1 and 2). For Periods 1 and 2, levels of nabilone and gabapentin were assessed following the time points listed in Table 2 following the first and fourth dose. Study participants returned on Day 8 (Periods 1 and 2) to have PK samples drawn to help determine the terminal half-life of nabilone. The Baseline (0-hour) time point was collected within 30 minutes prior to dosing.
Baseline concentrations of Δ-9-THC, 11-OHTHC and THC-COOH were determined using a validated liquid chromatographic-tandem mass spectroscopy (LC-MS/MS) assay with a lower limit of quantification (LLOQ) of 0.200 ng/mL.

The next data set deals with GABA receptors. As to conditions: concentrations at or below 1 millimolar; cited from earlier work.
The conditions of data set [3]: reported; cited from earlier work.
Where [4] appears, read: 6 mg, nabilone 6 mg, Days 1-2, both sequences, arithmetic mean.
[5] abbreviates: 6 mg, nabilone 6 mg, Days 4-5, both sequences, arithmetic mean.
Where [6] appears, read: 600 mg, gabapentin 600 mg, Sequence AB, Days 1-2, arithmetic mean.
Setting [7] is: 600 mg, gabapentin 600 mg, Sequence AB, Days 4-5, arithmetic mean.
Setting [8] is: 600 mg, gabapentin 600 mg, Sequence BA, Days 1-2, arithmetic mean.
Setting [9] is: 600 mg, gabapentin 600 mg, Sequence BA, Days 4-5, arithmetic mean.

`CCCCCCC(C)(C)c1cc(O)c2c(c1)OC(C)(C)C1CCC(=O)CC21` (racemic) [Nabilone, (±)-trans-3-(1,1-dimethylheptyl)-6,6a,7,8,10,10a-hexahydro-1-hydroxy-6-6-dimethyl-9H-dibenzo[b,d]pyran-9-one]: the “solubility in aqueous media” value in data set [1] was “less than 0.5 mg/L”. Besides, the AUC(0-t) in data set [2] (6 mg, AUC0-24, nabilone 6 mg, Days 1-2, both sequences, arithmetic mean) was determined as 34.1 ng·h/mL; in data set [2] (6 mg, AUC0-24, nabilone 6 mg, Days 4-5, both sequences, arithmetic mean), 33.9 ng·h/mL. Also, the values for the AUC(0-inf) in data set [2] (setting [4]) and in data set [2] (setting [5]) were 35.8 ng·h/mL and 37.4 ng·h/mL, respectively. Moreover, the Cmax in data set [2] (setting [4]) worked out at 8.51 ng/mL; in data set [2] (setting [5]) it was 8.59 ng/mL. The Tmax in data set [2] (6 mg, Tmax, nabilone 6 mg, Days 1-2, both sequences, PK population, arithmetic mean ± SD) is 2.5 ± 1.5 h; in data set [2] (6 mg, Tmax, nabilone 6 mg, Days 4-5, both sequences, arithmetic mean ± SD) it was 2.3 ± 0.9 h; in data set [2] (mean time to maximal concentration (Tmax), nabilone) it was roughly 2.5 h. The half-life in data set [2] (6 mg, t1/2, nabilone 6 mg, Days 1-2, both sequences, arithmetic mean ± SD) was 6.4 ± 1.7 h; in data set [2] (6 mg, t1/2, nabilone 6 mg, Days 4-5, both sequences, arithmetic mean ± SD), 9.9 ± 2.5 h. The “Pharmacokinetics compared with historical controls” value in data set [2] is recorded as “consistent with historical controls”. In data set [2] (nabilone, Days 1 to 2 vs Days 4 to 5), the “accumulation over the period studied” value is “no accumulation occurred; also recorded: minimal accumulation”.

With `NCC1(CC(=O)O)CCCCC1` [Gabapentin, 1-(aminomethyl)cyclohexaneacetic acid], the “binding to GABA receptors” value in the data set with GABA receptors is listed as “has not been shown to bind to GABA receptors”. The t1/2 in data set [2] (gabapentin 600 mg, Sequence BA, Days 1-2, arithmetic mean) was 5.3 h. Besides, in data set [2] (gabapentin, Days 4 to 5 vs Days 1 to 2), the “exposure metrics (Cmax, AUC0-24, AUC0-∞) over time” value is given as “exposure slightly increased at Days 4 to 5 compared to Days 1 to 2”. Also, the AUC(0-t) in data set [2] (600 mg, AUC0-24, gabapentin 600 mg, Sequence AB, Days 1-2, arithmetic mean) is 65700 ng·h/mL; in data set [2] (600 mg, AUC0-24, gabapentin 600 mg, Sequence AB, Days 4-5, arithmetic mean), 70500 ng·h/mL; in data set [2] (600 mg, AUC0-24, gabapentin 600 mg, Sequence BA, Days 1-2, arithmetic mean), 53600 ng·h/mL; in data set [2] (600 mg, AUC0-24, gabapentin 600 mg, Sequence BA, Days 4-5, arithmetic mean) it was 58100 ng·h/mL; in data set [2] (AUC0-24, gabapentin, range across days and sequences), 53600 to 70500 ng·h/mL. In addition, the AUC(0-inf) in data set [2] (setting [6]) was 70000 ng·h/mL; in data set [2] (setting [7]) it was 74900 ng·h/mL; in data set [2] (setting [8]) it was 57200 ng·h/mL; in data set [2] (setting [9]), 63100 ng·h/mL. Moreover, the Cmax in data set [2] (setting [6]) was found to be 6080 ng/mL; in data set [2] (setting [7]) it was 7010 ng/mL; in data set [2] (setting [8]), 5170 ng/mL; in data set [2] (setting [9]), 5510 ng/mL. Moreover, the Tmax in data set [2] (600 mg, Tmax, gabapentin 600 mg, Sequence AB, Days 1-2, arithmetic mean ± SD) is 3.7 ± 1.1 h; in data set [2] (600 mg, Tmax, gabapentin 600 mg, Sequence AB, Days 4-5, arithmetic mean ± SD), 3.3 ± 0.8 h; in data set [2] (600 mg, Tmax, gabapentin 600 mg, Sequence BA, Days 1-2, arithmetic mean ± SD), 3.7 ± 0.5 h; in data set [2] (600 mg, Tmax, gabapentin 600 mg, Sequence BA, Days 4-5, arithmetic mean ± SD) it was 1 ± 1.1 h; in data set [2] (mean Tmax, gabapentin, across days and sequences), 3.3 to 4 h. For the same compound, the half-life was 5.4 h in data set [2] (600 mg, t1/2, gabapentin 600 mg, Sequence AB, Days 1-2, arithmetic mean); 5.5 h in data set [2] (600 mg, t1/2, gabapentin 600 mg, Sequence AB, Days 4-5, arithmetic mean); 6.3 h in data set [2] (600 mg, t1/2, gabapentin 600 mg, Sequence BA, Days 4-5, arithmetic mean); 5.3 to 6.3 h in data set [2] (mean t1/2, gabapentin, range across treatment (days, sequence)). The “Pharmacokinetics compared with historical controls” value in data set [2] is “consistent with historical controls”.

Turning to `CCCCCc1cc(O)c2c(c1)OC(C)(C)[C@@H]1CCC(CO)=C[C@@H]21` [11-OH-delta-9-THC, 11-hydroxy-delta-9-tetrahydrocannabinol], the “agonist potency relative to delta-9-THC” value in data set [3] is “more potent agonist than delta-9-THC”.

These data come from patent US11197846B2, “Methods and compositions for treating cannabis use disorder and mitigating cannabinoid withdrawal” (Pleopharma, L.L.C., priority 2020, dated 2021).
